Where a name gives a salt, the structure may show the parent alone. Read-outs that look alike come from different tables or passages of the source.
Experiments:
Type in all cases: physicochemical
[1] = Equilibration under a temperature cycle (XRPD); conditions: 2-methyltetrahydrofuran, about 8 cycles
Description: The equilibration was executed with a stirring bar on a magnetic stirring plate at a rate of 300 rpm. The obtained suspensions were filtered through a 0.45 µm nylon membrane filter by centrifugation at 14,000 rpm. Solid parts (wet cakes) were investigated by XRPD.

[2] = Characterization of salt forms (XRPD, DSC, TGA, KF, HPLC, NMR/IC); conditions: for Melting onset (DCS, ° C.): Tonset
Description: Salt Forms identified in the investigation (Table 16) were further characterized by XRPD, DCS, TGA, KF, HPLC and ^1H NMR/IC (Table 19).
About 419 mg of sodium salt Form F was obtained as off-white solid in 76% yield.

[3] = Bulk stability of sodium salt Form F (1 week stress); conditions: for Bulk (XRPD) / Color / Purity, Bulk (HPLC): Solid state; for Decrease in chemical purity: one week stress at 25° C./92% RH
Description: Sodium salt Form F was placed at 25° C./92% RH in an open container, at 40° C./75% RH in an open container and at 60RC in a closed container for 1 week. Samples after the stress were characterized by XRPD and HPLC and inspected for color change.

[4] = Solubility in aqueous pH buffers and bio-relevant fluids at 37° C.; conditions: for XRPD 24 h: residual solid
Description: Solubility of the Form B and sodium salt Form F was measured in 7 aqueous pH buffers and bio-relevant fluids including pH 1.2 HCl solution (0.2N), pH 4.5 acetate buffer (50 mM), pH 6.8 phosphate buffer (50 mM), pH 2.0 SGF, pH 6.5 FaSSIF-v1, pH 5.0 FeSSIF-v1 and water at 37° C. for 2 h and 24 h, respectively.
Accurate 20 mg of the Form B was weighed into a 20 mL glass vial. Then, 10 mL of solubility medium was added. The sodium salt Form F amount used was equivalent to 20 mg anhydrous form. Obtained suspensions were stirred at 37° C. at 400 rpm and sampled at 2 hours and at 24 hours, respectively. The samples were centrifuged at 37° C. at 4,000 rpm for 4 min. Supernatants were analyzed by HPLC and pH meter for solubility and pH value, respectively. Residual solids (wet cakes) from the 24 hours samples were also characterized by XRPD to determine physical form.

[5] = Hygroscopicity of sodium salt Form F by DVS at 25° C.; conditions: for Form and crystallinity change after DVS test: DVS 25° C.
Description: Hygroscopicity of sodium salt Form F was evaluated by dynamic vapor sorption (DVS) test at 25° C.

[6] = Photostability evaluation of sodium salt Form F
[7] = 25° C./92% RH, open container, 1 week
[8] = 40° C./75% RH, open container, 1 week
[9] = 60° C., tight container, 1 week
[10] = FaSSIF-v1, pH 6.5, 37° C., LOQ: 1.5 μg/mL
[11] = pH 1.2 HCl solution (0.2N), 37° C.
[12] = pH 4.5 acetate buffer (50 mM), 37° C.
[13] = pH 4.5 acetate buffer (50 mM), 37° C., LOQ: 1.5 μg/mL
[14] = pH 6.8 phosphate buffer (50 mM), 37° C.
[15] = pH 6.8 phosphate buffer (50 mM), 37° C., LOQ: 1.5 μg/mL
[16] = Solid state, photo (visible light, 1.2 million lux-hrs)

Compound: CCN(C)S(=O)(=O)Nc1ccc(F)c(Oc2ccc3ncn([C@H]4COC5(CCN(C(=O)CC6(O)CCN(c7cc8c(cc7F)c(N7CCC(=O)NC7=O)nn8C)CC6)CC5)C4)c(=O)c3c2)c1C#N [Compound 1 Form C]
- Form conversion on temperature cycling [1]: converted to more stable Form B
- Form conversion on temperature cycling ([1]; listed as Form C): converted to anhydrate Form B

Compound: CCN(C)S(=O)(=O)[N-]c1ccc(F)c(Oc2ccc3ncn([C@H]4COC5(CCN(C(=O)CC6(O)CCN(c7cc8c(cc7F)c(N7CCC(=O)NC7=O)nn8C)CC6)CC5)C4)c(=O)c3c2)c1C#N.[K+] [Compound 1 potassium salt Form G]
- Weight loss (TGA) ([2]; at 170° C.): 4.5% at 170° C.,
- Weight loss (TGA) ([2]; at 170° C.-230° C.): 4.8% at 170° C.-

Compound: CCN(C)S(=O)(=O)Nc1ccc(F)c(Oc2ccc3ncn([C@H]4COC5(CCN(C(=O)CC6(O)CCN(c7cc8c(cc7F)c(N7CCC(=O)NC7=O)nn8C)CC6)CC5)C4)c(=O)c3c2)c1C#N [Compound 1 potassium salt Form H]
- Enthalpy (DSC, J/g) [2]: 33.48 J/g
- Melting onset (DCS, ° C.) [2]: Tonset 221.7 °C
- Weight loss (TGA) ([2]; at 170° C.): 6.6% at

Compound: CCN(C)S(=O)(=O)[N-]c1ccc(F)c(Oc2ccc3ncn([C@H]4COC5(CCN(C(=O)CC6(O)CCN(c7cc8c(cc7F)c(N7CCC(=O)NC7=O)nn8C)CC6)CC5)C4)c(=O)c3c2)c1C#N.[Na+] [Compound 1 sodium salt Form D]
- Melting onset (DCS, ° C.) ([2]; listed as Sodium salt Form D): Tonset 229.5 °C
- Weight loss (TGA) ([2]; at 150° C.): 6.9% at
- Enthalpy (DSC, J/g) ([2]; listed as Sodium salt Form D): 27.83 J/g

Compound: CCN(C)S(=O)(=O)[N-]c1ccc(F)c(Oc2ccc3ncn([C@H]4COC5(CCN(C(=O)CC6(O)CCN(c7cc8c(cc7F)c(N7CCC(=O)NC7=O)nn8C)CC6)CC5)C4)c(=O)c3c2)c1C#N.[Na+] [Compound 1 sodium salt Form E]
- Melting onset (DCS, ° C.) ([2]; listed as Sodium salt Form E): Tonset 228.7 °C
- Weight loss (TGA) ([2]; at 180° C.): 10.8% at
- Enthalpy (DSC, J/g) ([2]; listed as Sodium salt Form E): 26.01 J/g
- Water content (by KF) ([2]; listed as Sodium salt Form E): 10.2% by % by weight

Compound: CCN(C)S(=O)(=O)[N-]c1ccc(F)c(Oc2ccc3ncn([C@H]4COC5(CCN(C(=O)CC6(O)CCN(c7cc8c(cc7F)c(N7CCC(=O)NC7=O)nn8C)CC6)CC5)C4)c(=O)c3c2)c1C#N.[Na+] [Compound 1 sodium salt Form F]
- Crystallinity by XRPD ([2]; Table 20, batch of Example 24): Medium crystallinity
- DSC, heating rate [10° C./min]: Tonset ([2]; Table 20, batch of Example 24): Tonset 194.7 °C
- Melting enthalpy ([2]; Table 20, batch of Example 24): 32.4 J/g
- Residual solvent by ^1H NMR, weight % ([2]; Table 20, batch of Example 24): No detectable residual solvent
- Water content by Karl Fischer ([2]; Table 20, batch of Example 24): 2.5 equiv. water
- Water content by Karl Fischer, weight % ([2]; Table 20, batch of Example 24): 4.6 % by weight
- Melting onset (DCS, ° C.) ([2]; listed as Sodium salt Form F): Tonset 197.7 °C
- Weight loss (TGA) ([2]; at 100° C.): 2.7% at 100° C.,
- Weight loss (TGA) ([2]; at 100° C.-170° C.): 3.2% at 100° C.-
- Weight loss in % at ° C. (Thermogravimetry, heating rate [10° C./min]) ([2]; at 180° C., Table 20, batch of Example 24): 4.8% at 180 °C
- Water content (by KF) ([2]; listed as Sodium salt Form F): 6.2% by % by weight
- Crystallinity change ([3]; 60° C. in a tight/closed container, 1 week): slight crystallinity decrease
- Bulk (XRPD) [3, 7]: No form change
- Color [3, 7]: No change of color
- Purity, Bulk (HPLC) [3, 7]: 97.7%
- Bulk (XRPD) [3, 8]: No form change
- Color [3, 8]: No change of color
- Purity, Bulk (HPLC) [3, 8]: 98.5%
- Bulk (XRPD) [3, 9]: No form change, slight crystallinity decrease
- Color [3, 9]: No change of color
- Purity, Bulk (HPLC) [3, 9]: 98.9%
- Decrease in chemical purity ([3]; listed as Form F): 1.2%
- Decrease in chemical purity ([3]; listed as Sodium salt Form F): about 1.2%
- Morphic form stability (form change) ([3]; one week, 25° C./92% RH open, 40° C./75% RH open, 60° C. tight container): no form change
- Disproportionation after solubility test (IC) [4]: partially disproportionated
- pH of supernatant 24 h ([4]; FaSSIF-v1, pH 6.5, 37° C.): (pH = 6.7)
- Solubility 2 h [4, 10]: <LOQ
- Solubility 24 h [4, 10]: <LOQ
- Solubility 2 h ([4]; FeSSIF-v1, pH 5.0, 37° C.): 6.7 µg/mL
- Solubility 24 h ([4]; FeSSIF-v1, pH 5.0, 37° C.): 10.4 µg/mL
- pH of supernatant 24 h ([4]; FeSSIF-v1, pH 5.0, 37° C.): (pH = 5.1)
- Solubility 2 h ([4]; SGF, pH 2.0, 37° C.): 10.9 µg/mL
- Solubility 24 h ([4]; SGF, pH 2.0, 37° C.): 8.6 µg/mL
- pH of supernatant 24 h ([4]; SGF, pH 2.0, 37° C.): (pH = 2.2)
- Solubility 24 h ([4]; Water, 37° C.): 73.0 µg/mL
- pH of supernatant 24 h ([4]; Water, 37° C.): (pH = 8.7)
- Solubility 2 h ([4]; Water, 37° C., LOQ: 1.5 μg/mL): 98.8 µg/mL
- pH dependence of solubility ([4]; aqueous media, 37° C.): pH dependent solubility
- Solubility compared with Form B ([4]; especially pH 1.2 HCl solution, pH 4.5 acetate buffer, SGF, FeSSIF-v1, 37° C.): better solubility than that of the Form B
- Solubility 2 h [4, 11]: 19.3 µg/mL
- Solubility 24 h [4, 11]: 51.1 µg/mL
- pH of supernatant 24 h [4, 11]: (pH = 1.0)
- Crystallinity change after solubility test ([4]; pH 1.2 HCl solution and SGF): crystallinity decrease
- pH of supernatant 24 h [4, 12]: (pH = 4.6)
- Solubility 2 h [4, 13]: <LOQ
- Solubility 24 h [4, 13]: 3.7 µg/mL
- pH of supernatant 24 h [4, 14]: (pH = 6.9)
- Solubility 2 h [4, 15]: <LOQ
- Solubility 24 h [4, 15]: <LOQ
- XRPD 24 h ([4]; FaSSIF-v1, pH 6.5, 37° C.): No form change
- XRPD 24 h ([4]; FeSSIF-v1, pH 5.0, 37° C.): No form change
- XRPD 24 h ([4]; Water, 37° C.): No form change
- XRPD 24 h [4, 12]: No form change
- XRPD 24 h [4, 14]: No form change
- 1st desorp. Weight % change ([5]; 0% RH, 25° C.): 0.0%
- 2nd sorp. Weight % change ([5]; 0% RH, 25° C.): 0.0%
- 1st desorp. Weight % change ([5]; 10% RH, 25° C.): 0.6%
- 2nd sorp. Weight % change ([5]; 10% RH, 25° C.): 0.5%
- 1st desorp. Weight % change ([5]; 20% RH, 25° C.): 1.2%
- 2nd sorp. Weight % change ([5]; 20% RH, 25° C.): 0.8%
- 1st desorp. Weight % change ([5]; 30% RH, 25° C.): 2.2%
- 2nd sorp. Weight % change ([5]; 30% RH, 25° C.): 1.2%
- 1st desorp. Weight % change ([5]; 40% RH, 25° C.): 3.7%
- 1st sorp. Weight % change ([5]; 40% RH, 25° C.): 3.1%
- 2nd desorp. Weight % change ([5]; 40% RH, 25° C.): 3.9%
- 2nd sorp. Weight % change ([5]; 40% RH, 25° C.): 1.5%
- 1st desorp. Weight % change ([5]; 50% RH, 25° C.): 5.0%
- 1st sorp. Weight % change ([5]; 50% RH, 25° C.): 3.3%
- 2nd desorp. Weight % change ([5]; 50% RH, 25° C.): 5.2%
- 2nd sorp. Weight % change ([5]; 50% RH, 25° C.): 2.2%
- 1st desorp. Weight % change ([5]; 60% RH, 25° C.): 6.1%
- 1st sorp. Weight % change ([5]; 60% RH, 25° C.): 3.4%
- 2nd desorp. Weight % change ([5]; 60% RH, 25° C.): 6.2%
- 2nd sorp. Weight % change ([5]; 60% RH, 25° C.): 3.5%
- 1st desorp. Weight % change ([5]; 70% RH, 25° C.): 7.5%
- 1st sorp. Weight % change ([5]; 70% RH, 25° C.): 3.7%
- 2nd desorp. Weight % change ([5]; 70% RH, 25° C.): 7.7%
- 2nd sorp. Weight % change ([5]; 70% RH, 25° C.): 5.8%
- 1st desorp. Weight % change ([5]; 80% RH, 25° C.): 9.7%
- 1st sorp. Weight % change ([5]; 80% RH, 25° C.): 4.1%
- 2nd desorp. Weight % change ([5]; 80% RH, 25° C.): 9.9%
- 2nd sorp. Weight % change ([5]; 80% RH, 25° C.): 7.9%
- 1st desorp. Weight % change ([5]; 90% RH, 25° C.): 15.5%
- 1st sorp. Weight % change ([5]; 90% RH, 25° C.): 7.0%
- 2nd desorp. Weight % change ([5]; 90% RH, 25° C.): 16.4%
- 2nd sorp. Weight % change ([5]; 90% RH, 25° C.): 13.1%
- 1st desorp. Weight % change ([5]; 95% RH, 25° C.): 16.7%
- 1st sorp. Weight % change ([5]; 95% RH, 25° C.): 16.7%
- 2nd desorp. Weight % change ([5]; 95% RH, 25° C.): 19.6%
- 2nd sorp. Weight % change ([5]; 95% RH, 25° C.): 19.6%
- Form and crystallinity change after DVS test [5]: no changes in crystallinity
- Form and crystallinity change after DVS test ([5]; listed as sodium salt Form F): no form change and no crystallinity decrease
- Hygroscopicity ([5]; below 80% RH, 25° C.): slightly hygroscopic
- Water uptake ([5]; from 80% RH to 95% RH at 25° C.): 12.6%
- Chemical purity decrease after photostability evaluation [6]: about 1%
- Bulk (XRPD) [6, 16]: No form change
- Color [6, 16]: No change of color
- Purity, Bulk (HPLC) [6, 16]: 97.9%
- Purity, Control (HPLC) ([6]; photo test, control sample): 98.9%
